# Results as given in patent publication US20100015126A1, “Methods of Binding of Cross-Beta Structures By Chaperones” (priority 2006, published 2010).
# Biological target: T1, BiP-Sepharose (Homo sapiens, UniProt P11021)
# T1 construct: The human BiP gene except the signal peptide encoding region was obtained from Geneart (Germany); linker […]; made in house; host or cells: HEK 293E cells, transient transfection, PABC674 vector; secreted into the medium
# Assay: BiP-Sepharose extraction of proteins from patient plasma, serum, synovial fluid and mass-spectrometric identification
# Format: binding
# Settings: for Specific binding to BiP-Sepharose from control serum: compared to RA patient III
# Experimental: BiP was coated on CNBr-Sepharose (GE-Healthcare, Amersham Biosciences). Immobilization of BiP was performed essentially as described elsewhere in this application for NHS-Sepharose. CNBr-matrix was dissolved at 200 mg/ml in 1 mM HCl and treated the same as the NHS-matrix, except for an additional 5 minutes activation step in 1 mM HCl on a roller device before washing in this buffer. BiP was diluted in immobilization buffer (50 mM NaCl and 40 mM NaHCO3) to a concentration of 820 μg/ml. A total volume of 2 ml BiP solution (1640 μg BiP) was incubated with 360 mg beads. Negative control matrix was exposed to immobilization buffer, only. After overnight immobilization matrix was blocked with Tris and washed.
# Six samples were incubated with the BiP-Sepharose, IgIV-Sepharose and the control-Sepharose: Normal pooled plasma, plasma of a patient I or of a patient II, with AL amyloidosis, serum of a patient III with RA (Rheumatoid Factor (RF) titer 682), control serum and synovial fluid of a patient IV with RA (RF titer 23). All samples were diluted 20× in HBS and applied to 200 μl beads in two volumes of 500 μl. One volume was incubated for 4 h at RT and supernatant was discarded after centrifugation (2 minutes at 1400 rpm). Subsequently, the second volume was applied to the same matrix and incubated overnight on a roller device at 4° C. […] To collect the eluates, the matrices were centrifuged and the two eluates were pooled for each sample.
# Protein digests were desalted as described (Rappsilber et al., 2003), vacuum dried and dissolved in 2.5% formic acid.
# For analysis of peptide mixtures, an Agilent 1100 HPLC system (Agilent Technologies) connected to a Thermo Finnigan LTQ-MS (Thermo Electron, Bremen, Germany) was used. Protein digests were injected on a trap column (Reprosil C18 RP (Dr Maisch, Germany), 20 mm×100 μm I.D.) at 5 μl/minute. Subsequently, the peptides were transferred with a split-reduced flow rate of 100 nL/minute solvent A (0.1 M acetic acid) on the analytical column (Reprosil C18 RP, 20 cm×50 μm I.D.). […] The column effluent was directly introduced into the ESI source of the mass spectrometer via a butt-connected nano-ESI emitter (New Objectives, Woburn, Mass.). The mass spectrometer was operated in the positive ion mode and parent ions were selected for fragmentation in data-dependent mode.
# After mass spectrometric measurements, peak lists were generated using BioWorks software (Thermo Electron, Bremen, Germany). Protein identification was performed using Mascot software (www.matrixscience.com) by searching the IPIhuman database (version 3.24, downloaded from ftp://ftp.ebi.ac.uk/pub/databases/IPI/current) using the following settings: fully tryptic peptides, peptide tolerance 0.8 Da, MS/MS tolerance 0.9 Da, 1 missed cleavage allowed, carbamidomethyl (Cys) and oxidation (Met) as fixed and variable modification, respectively. The Scaffold software package (www.proteomesoftware.com) was used to parse the data and to filter peptides at a confidence level of 95%, allowing only protein identification with at least 2 peptides identified.
# [1] = Sample B4: eluate of BiP-Sepharose contacted with RA patient III serum
# [2] = compared to AL amyloidosis patient I
# [3] = compared to AL amyloidosis patient II
# [4] = Sample B2: eluate of BiP-Sepharose contacted with AL amyloidosis patient I plasma
# [5] = Sample B3: eluate of BiP-Sepharose contacted with AL amyloidosis patient II plasma
# [6] = Sample B6: eluate of BiP-Sepharose contacted with RA patient IV synovial fluid
# T1 sequence (P11021 19-654): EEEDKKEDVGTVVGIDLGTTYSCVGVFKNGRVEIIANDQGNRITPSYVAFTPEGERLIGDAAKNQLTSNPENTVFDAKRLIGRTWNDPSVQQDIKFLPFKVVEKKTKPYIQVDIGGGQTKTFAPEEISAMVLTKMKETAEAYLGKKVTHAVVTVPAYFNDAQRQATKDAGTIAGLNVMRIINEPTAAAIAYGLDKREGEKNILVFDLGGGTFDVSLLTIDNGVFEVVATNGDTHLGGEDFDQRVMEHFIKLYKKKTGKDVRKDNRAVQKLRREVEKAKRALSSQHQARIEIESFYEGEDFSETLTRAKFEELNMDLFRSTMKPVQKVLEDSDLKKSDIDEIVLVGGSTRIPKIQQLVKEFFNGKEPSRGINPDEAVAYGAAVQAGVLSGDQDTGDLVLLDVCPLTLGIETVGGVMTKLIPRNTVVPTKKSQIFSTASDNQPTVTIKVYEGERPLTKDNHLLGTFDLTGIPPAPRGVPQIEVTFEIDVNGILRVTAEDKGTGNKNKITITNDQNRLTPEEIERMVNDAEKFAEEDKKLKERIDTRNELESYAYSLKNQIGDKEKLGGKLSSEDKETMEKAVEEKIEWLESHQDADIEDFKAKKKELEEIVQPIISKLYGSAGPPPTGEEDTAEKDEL
Substance,# of peptides in sample A# [1],# of peptides in sample A# [5],other results
Alpha-2-macroglobulin [IPI00478003],,,Specific binding to BiP-Sepharose from normal pooled plasma [2]: specifically bound; Specific binding to BiP-Sepharose from normal pooled plasma [3]: specifically bound
Isoform Long of Antigen KI-67/Antigen KI-67 [IPI00004233],,,# of peptides in sample A# [4]: 1
Hypothetical protein [IPI00807428],,,# of peptides in sample A# [4]: 1
IGLC1 protein (immunoglobulin lambda C1)/immunoglobulin lambda chain/immunoglobulin C1 segment protein (fragment) [IPI00719373],2,1,# of peptides in sample A# [6]: 1
GCN1 general control of amino-acid synthesis 1-like 1 (yeast)/GCN1-like protein 1 (HsGCN1) [IPI00001159],2,,
Apolipoprotein E precursor/Apolipoprotein E/Apolipoprotein E3 (Fragment) [IPI00021842],,,# of peptides in sample A# [4]: 6
haptoglobin [IPI00431645],,,Specific binding to BiP-Sepharose from normal pooled plasma [2]: specifically bound; Specific binding to BiP-Sepharose from normal pooled plasma [3]: specifically bound; Specific binding to BiP-Sepharose from control serum: specifically bound
26 kDa protein/Immunoglobulin kappa variable 1-5 [IPI00430820],,,# of peptides in sample A# [6]: 6
187 kDa protein/Complement component 3 [IPI00164623],9,,
Ig heavy chain V-III region CAM [IPI00382482],,,# of peptides in sample A# [6]: 2
(sero)transferrin [IPI00022463],,,Specific binding to BiP-Sepharose from normal pooled plasma [2]: specifically bound; Specific binding to BiP-Sepharose from control serum: specifically bound
"Immunoglobulin J chain, Immunoglobulin J polypeptide, linker protein for immunoglobulin alpha and mu polypeptides [IPI00178926]",5,,
"Complement component 4 binding protein, alpha, C4b-binding protein alpha chain precursor (C4bp) (Proline-rich protein/PRP) [IPI00021727]",7,,Specific binding to BiP-Sepharose from normal pooled plasma [3]: specifically bound
Full-length cDNA clone CS0DL004YM19 of B cells (Ramos cell line) of Homo sapiens (Fragment)/Unnamed protein product [IPI00328493],4,,
Hypothetical protein/Ig kappa chain V-II region RPMI 6410 precursor [IPI00550731],,1,
"Alpha-1-antitrypsin precursor/Serpin peptidase inhibitor, clade A (alpha-1 antiproteinase, antitrypsin), member 1 [IPI00553177]",1,,
26 kDa protein/immunoglobulin kappa variable 1-5 [IPI00738024],,1,# of peptides in sample A# [4]: 1
Vitronectin precursor (Serum-spreading factor/S-protein/V75 [Contains: Vitronectin V65 subunit; Vitronectin V10 subunit; Somatomedin B])/Vitronectin [IPI00298971],4,,
IGLC2 protein (immunoglobulin lambda C2)/Immunoglobulin lambda [IPI00555945],,,# of peptides in sample A# [4]: 1
Fc fragment of IgG binding protein (IgGFc-binding protein precursor/FcgammaBP/Fcgamma-binding protein antigen) [IPI00242956],,,# of peptides in sample A# [4]: 4
"Hypothetical protein/Heat shock 70 kDa protein 5 (glucose-regulated protein, 78 kDa = GRP78 = BiP = HSPA5) [IPI00003362]",,,# of peptides in sample A# [6]: 31
clusterin isoform 1 [IPI00291262],,,Specific binding to BiP-Sepharose from normal pooled plasma [3]: specifically bound; Specific binding to BiP-Sepharose from control serum: specifically bound
"Hypothetical protein/immunoglobulin lambda locus/immunoglobulin lambda chain C regions (1/2/3)/immunoglobulin lambda variable V2-14/Ig lambda C3 protein (C2 segment protein, C3 segment protein)/Hypothetical protein DKFZp667J0B10 (Fragment) [IPI00760678]",,,# of peptides in sample A# [4]: 1
complement factor H isoform I [IPI00029739],,,Specific binding to BiP-Sepharose from normal pooled plasma [3]: specifically bound
Phosphatase and actin regulator 4 isoform 1/Hypothetical protein DKFZp686L07205 [IPI00217851],2,,

# The next lines start with results.
# of peptides in sample A# [1],# of peptides in sample A# [5],Substance,other results
1,,Ig heavy chain V-III region TUR/Ig heavy chain V-III region TIL [IPI00382478],
10,,Immunoglobulin lambda variable 3-25/V2-17 protein (Fragment) [IPI00550162],# of peptides in sample A# [4]: 8
2,1,"Isoform 1 of Plectin-1/Plectin 1 (intermediate filament binding protein 500 kDa, Hemidesmosomal protein 1/HD1) [IPI00014898]",
,2,Hypothetical protein [IPI00784983],# of peptides in sample A# [6]: 1
2,,Ig kappa chain V-I region WEA/Similar to Ig kappa chain V-I region HK102 precursor/Ig kappa chain V-I region AU [IPI00003111],
3,,Myosin-reactive immunoglobulin light chain variable region/Ig kappa chain V-III region VH precursor (Fragment) [IPI00024138],
,2,Dynein heavy chain domain 3/KIAA1503 protein (Fragment) [IPI00783464],
,2,Hypothetical protein/immunoglobulin lambda variable 4-3 [IPI00382938],# of peptides in sample A# [4]: 1
1,1,Hypothetical protein LOC651928/Immunoglobulin kappa variable 1-5/IGKV2-24 protein [IPI00440577],
,1,Hypothetical protein DKFZp686N02209/immunoglobulin heavy constant gamma 1 (G1m marker) [IPI00384938],
,2,Single-chain Fv (Fragment) [IPI00470652],
,1,25 kDa protein/immunoglobulin lambda chain/rheumatoid factor G9 light chain (lambda V3)/IGLC1 protein [IPI00154742],# of peptides in sample A# [4]: 1
,8,25 kDa protein/Immunoglobulin lambda locus [IPI00747752],
